Laboratory results: US8063047B2, “Pyridazine compounds and methods” (Centre National de la Recherche Scientifique (CNRS), priority 2004, dated 2011)

How the values were obtained:
[1] = system: IL-1β production by BV-2 mouse microglial cells stimulated with LPS; assay: LPS-induced IL-1β production in BV-2 microglial cells; format: cell-based; conditions: BV-2 cells, LPS 100 ng/ml, 16 hrs, cell lysates, MSD assay
Procedure: (§1) BV-2 cells were treated with LPS (100 ng/ml) in the absence or presence of increasing concentrations of MW01-2-151WH or three structurally related analogs (MW01-3-202WH and MW01-3-173WH) for 16 hrs with levels of IL-1β and TNFα in cell lysates measured by the Meso-Scale Discovery electrochemiluminescent detection assay (See, e.g., Example 1, Materials and Methods). Data are the mean+/−SEM of triplicate determinations.
(§2) Biological investigations were done with compounds disclosed herein that were >95% homogenous as determined by HPLC/MS analysis. As part of a hierarchal, cell-based screening protocol, the compounds were screened for their ability to block IL-1β and TNFα production by BV-2 mouse microglial cells stimulated with LPS. The data for MWO1-2-1-151WH and the three structurally related analogs (MW01-3-202WH and MW01-3-173WH,) is shown (See, e.g., FIG. 2). Derivative groups that may be used to modify the compounds of the present invention can be found in U.S. Patent Application No. 20030176437 (herein incorporated by reference in its entirety for all purposes).
(§3) Cell Culture Assays. […] EL-1/3 and TNFa levels in cell lysates were determined by electro-chemiluminescent detection in a Meso-Scale Discovery (MSD) kit, as per the manufacturer's instructions.

[2] = system: TNFα production by BV-2 mouse microglial cells stimulated with LPS; assay: LPS-induced TNFα production in BV-2 microglial cells; format: cell-based; conditions: BV-2 cells, LPS 100 ng/ml, 16 hrs, cell lysates, MSD assay
Procedure: as §1, §2, §3

[3] = system: Accumulation of the NO metabolite, nitrite, BV-2 microglial cells; assay: Nitrite (NO metabolite) accumulation in BV-2 microglial cells; format: cell-based, mouse; conditions: BV-2 cells, concentrations up to 50 μM
Procedure: FIG. 4 A-C are graphs of the cell-based activity of MW01-2-151WH in BV-2 microglial cells. MW01-2-151WH is a concentration-dependent and selective inhibitor of proinflammatory cytokine production by activated glia. […] (C) Accumulation of the NO metabolite, nitrite, was not inhibited at concentrations up to 50 μM.

[4] = system: Aβ-induced neuroinflammation and synaptic damage; assay: Aβ1-42 ICV infusion mouse model, hippocampal endpoints; format: in vivo, C57B1/6 mice; conditions: mice infused ICV with Aβ1-42; […] per day i.p. for 14 days
Procedure: FIG. 3A-F are graphs of MW01-2-151WH suppression of Aβ-induced neuroinflammation and synaptic damage. Hippocampal sections or extracts from vehicle-infused mice (control), Aβ-infused mice injected with solvent, and Aβ-infused mice injected with MW01-2-151 WH were evaluated for neuroinflammation by measurement of the levels of the pro-inflammatory cytokines IL-1β (A), TNFα(B), and S100B (C), and the number of GFAP-positive astrocytes, (D) and F4/80-positive microglia, (E), and evaluated for synaptic damage by analysis of the levels of the postsynaptic density protein 95 (PSD-95) (F). Data are from one of two independent experiments, and are the mean±SEM for 4-5 mice per experimental group.
In vivo Assays. Aβ-42 infusions and treatment of C57B1/6 mice with MW01-2-151WH were performed as previously described. Briefly, oligomeric […] was infused ICV for 28 days with a micro-osmotic pump. At post-operative day 21 and continuing for 14 days thereafter, mice were injected intraperitoneally once daily with either MW01-2-151WH (2.5 mg/kg per day) or solvent control (10% DMSO in saline). At post-operative day 60, mice were perfused and sacrificed, and hippocampal endpoints measured as previously described. […]

liver, lungs, and kidney = assay: Graded dose, acute toxicity assay (histology of liver, lung, kidney); format: in vivo; conditions: mice, oral gavage once daily for 3 days, up to 50 mg/kg
Procedure: Vehicle (panels A,C,E) or MW01-2-151 WH (panels B,D,F) was orally administered (gavage) to mice daily for three days at 50 mg/kg (20-fold greater than a therapeutic dose, described in Materials and Methods).
Graded dose, acute toxicity assays Vehicle (30% DMSO) or MW01-2-151WH (3.1, 12.5 or 50 mg/kg) in 0.5% carboxymethylcellulose was administered by oral gavage once daily for 3 days. On the 4th day, mice were anesthetized with pentobarbital, intubated and the lungs were inflated with an air containing syringe. The mice were perfused through the right ventricle and the lungs, liver and kidneys were then harvested and fixed in 4% paraformaldehyde for histology. Paraffin embedded hematoxylin & eosin stained sections of each organ were prepared by standard techniques.

Compound	inhibition of LPS-induced IL-1β production [1]	inhibition of LPS-induced IL-1β production ([1]; listed as MW01-2-151 WH)	inhibition of LPS-induced TNFα production [2]	inhibition of LPS-induced TNFα production ([2]; listed as MW01-2-151 WH)	Accumulation of the NO metabolite, nitrite [3]	number of F4/80 positive microglia [4]	tissue toxicity (histology of liver, lung, kidney), acute (liver, lungs, and kidney)	tissue toxicity (histology of liver, lung, kidney), acute (liver, lungs, and kidney; listed as MW01-2-151 WH)
5,6-dihydro-3-(4-(pyrimidin-2-yl)piperazin-1-yl)benzo[h]cinnoline [MW01-2-151WH]	Concentration-dependent inhibition	suppressed	Concentration-dependent inhibition	suppressed	not inhibited	suppressed	No tissue toxicity was observed	no histological evidence of toxicity
5,6-dihydro-3-(4-phenylpiperazin-1-yl)benzo[h]cinnoline [MW01-3-173WH]	somewhat less suppressive activity	–	somewhat less suppressive activity	–	–	–	–	–
c1ccc(N2CCN(c3cc4c(nn3)-c3ccccc3CC4)CC2)nc1 [MW01-3-202WH, 5,6-dihydro-3-(4-(pyridm-2-yl)piperazin-1-yl)benzo[h]cinnoline]	somewhat less suppressive activity	–	somewhat less suppressive activity	–	–	–	–	–
